System: Plasmodium berghei
Assay: Luciferase/luciferin-expressing antifolate-resistant parasites were used to infect a culture of HepG2 cells that were pre-incubated with compounds. Infected hepatocytes emit light due to the luciferase reaction. Assay results are presented as the percent inhibition of light emission compared to control. […]
Format: functional
Conditions: sporozoite; for IC90: read-out: LUCIFERASE INFECTION ASSAY - IC90
[1] = read-out: LUCIFERASE INFECTION ASSAY - IC50

In the case of `FC(F)Oc1ccc(-c2n[nH]cc2Sc2ccc(Cl)cc2)cc1`, the IC50 (FFLUC_HILL_SLOPE 44.1, FFLUC_R_SQUARED 0.44, PBLUC_HILL_SLOPE 8.27, PBLUC_R_SQUARED 0.292, read-out: LUCIFERASE INFECTION ASSAY - IC50) is reported as > 9.35 µM and the IC90 is reported as > 9.35 µM.
`N=C(N)N/N=C/c1ccc(Cl)cc1Cl` was tested, and the IC50 (HEPG2TOX_HILL_SLOPE 3.43, HEPG2TOX_R_SQUARED 0.626, PBLUC_HILL_SLOPE 2.34, PBLUC_R_SQUARED 0.812, read-out: LUCIFERASE INFECTION ASSAY - IC50) was 2.27 µM and the IC90 was 5.8 µM.
With `CC(=O)Nc1cc(-c2ccc(C(=O)NC3CC3)cc2)cn2c(-c3ccc(F)c(Cl)c3)cnc12` the IC50 [1] was > 7.13 µM and the IC90 was > 7.13 µM.
`CCOC(=O)c1sc(NC(=O)Nc2ccc(Cl)c(Cl)c2)cc1C` showed an IC50 (HEPG2TOX_HILL_SLOPE 22.1, HEPG2TOX_R_SQUARED 0.877, PBLUC_HILL_SLOPE 3.44, PBLUC_R_SQUARED 0.676, read-out: LUCIFERASE INFECTION ASSAY - IC50) of 1.25 µM and an IC90 of 2.36 µM.
In the case of `O=C1C=CC(=O)N1c1ccc(Cl)cc1Cl`, the IC50 (FFLUC_HILL_SLOPE 227, FFLUC_R_SQUARED 0.205, read-out: LUCIFERASE INFECTION ASSAY - IC50) is reported as > 13.6 µM and the IC90 is reported as > 13.6 µM.
For `COc1ccc2ccccc2c1/C=N/n1c(-c2ccc(Br)s2)cs/c1=N\c1ccc(Cl)cc1`, the IC50 (PBLUC_HILL_SLOPE 0.354, PBLUC_R_SQUARED 0.256, read-out: LUCIFERASE INFECTION ASSAY - IC50) was > 10 µM and the IC90 was > 10 µM.
For `Cc1c(C(=O)O)cc(-c2ccccc2)n1CCNC(=O)OC(C)(C)C`, the IC50 [1] was > 9.58 µM and the IC90 was > 9.58 µM.
In the case of `CCOC(=O)c1ccc(N2C(=O)C=CC2=O)cc1`, the IC50 (FFLUC_HILL_SLOPE 9.09, FFLUC_R_SQUARED 0.613, PBLUC_HILL_SLOPE 2.11, PBLUC_R_SQUARED 0.463, read-out: LUCIFERASE INFECTION ASSAY - IC50) is reported as 7.08 µM and the IC90 is reported as > 13.5 µM.
Work on `CC(C)N1CCC(NC(=O)c2ccc(COc3ccc4ccccc4c3)o2)CC1` yielded an IC50 (PBLUC_HILL_SLOPE 1.64, PBLUC_R_SQUARED 0.625, read-out: LUCIFERASE INFECTION ASSAY - IC50) of 2.37 µM and an IC90 of 9.06 µM.
`Cc1cc(S(=O)(=O)c2ccc(OC(=O)CC3CCCC3)c(C)c2)ccc1OC(=O)CC1CCCC1` was tested, and the IC50 (HEPG2TOX_HILL_SLOPE 0.0998, HEPG2TOX_R_SQUARED 0.18, PBLUC_HILL_SLOPE 0.103, PBLUC_R_SQUARED 0.0204, read-out: LUCIFERASE INFECTION ASSAY - IC50) was > 10 µM and the IC90 was > 10 µM.
`Cc1cc(-c2csc(NC(=O)CCc3nc4ccccc4[nH]3)n2)c(C)s1` was tested, and the IC50 (PBLUC_HILL_SLOPE 3, PBLUC_R_SQUARED 0.654, read-out: LUCIFERASE INFECTION ASSAY - IC50) was 6.46 µM and the IC90 was > 10 µM.
`COc1ccc(F)cc1CN(Cc1ccc(C(=O)NC2CC2)cc1)Cc1ccco1` gave an IC50 (HEPG2TOX_HILL_SLOPE 2.87, HEPG2TOX_R_SQUARED 0.785, PBLUC_HILL_SLOPE 1.38, 16.4, PBLUC_R_SQUARED 0.804, 0.717, read-out: LUCIFERASE INFECTION ASSAY - IC50) of 0.286 µM and an IC90 of 0.722 µM.
For `COCCCNc1nnc(Cc2ccc(Cl)cc2)c(O)n1`, the IC50 (HEPG2TOX_HILL_SLOPE 2.55, HEPG2TOX_R_SQUARED 0.699, PBLUC_HILL_SLOPE 0.604, PBLUC_R_SQUARED 0.236, read-out: LUCIFERASE INFECTION ASSAY - IC50) was 6.39 µM and the IC90 was > 10.7 µM.
`Cc1cc(=O)nc(N/N=C/c2c(C)nn(-c3ccccc3)c2Oc2ccc(F)cc2)[nH]1` was tested, and the IC50 (PBLUC_HILL_SLOPE 3.64, PBLUC_R_SQUARED 0.538, read-out: LUCIFERASE INFECTION ASSAY - IC50) was 6.15 µM and the IC90 was > 10 µM.
`Nc1nc(N)nc(COC(=O)c2c3c(nc4ccccc24)/C(=C/c2c(F)cccc2Cl)CC3)n1` was tested, and the IC50 (HEPG2TOX_HILL_SLOPE 0.332, HEPG2TOX_R_SQUARED 0.762, PBLUC_HILL_SLOPE 7.86, PBLUC_R_SQUARED 0.0482, read-out: LUCIFERASE INFECTION ASSAY - IC50) was > 10 µM and the IC90 was > 10 µM.
For `O=C1/C(=C/Nc2cccc(O)c2)c2ccccc2C(=O)N1Cc1ccccc1`, the IC50 (PBLUC_HILL_SLOPE 10.5, PBLUC_R_SQUARED 0.272, read-out: LUCIFERASE INFECTION ASSAY - IC50) was 7.8 µM and the IC90 was 9.61 µM.
`CNc1nc2cnc(Nc3cccc(F)c3)cc2n1-c1cccc(C(F)(F)F)c1` was tested, and the IC50 (FFLUC_HILL_SLOPE 8.44, FFLUC_R_SQUARED 0.0352, read-out: LUCIFERASE INFECTION ASSAY - IC50) was > 10 µM and the IC90 was > 10 µM.
With `Cc1ccc(S(=O)(=O)N(Cc2ccc(C(=O)NC3CC3)cc2)C2CC2)c(C)c1` the IC50 (PBLUC_HILL_SLOPE 1.22, PBLUC_R_SQUARED 0.762, read-out: LUCIFERASE INFECTION ASSAY - IC50) was 0.0818 µM and the IC90 was 0.498 µM.
For `C=CCSc1nnc(-c2ccc(C(C)(C)C)cc2)n1-c1ccc(Cl)cc1`, the IC50 (PBLUC_HILL_SLOPE 0.788, PBLUC_R_SQUARED 0.735, read-out: LUCIFERASE INFECTION ASSAY - IC50) was > 8.59 µM and the IC90 was > 8.59 µM.
For `C=C(c1ccccc1)[n+]1ccc(C(=O)c2ccccc2)cc1`, the IC50 (HEPG2TOX_HILL_SLOPE 15.5, HEPG2TOX_R_SQUARED 0.47, PBLUC_HILL_SLOPE 4.11, PBLUC_R_SQUARED 0.394, read-out: LUCIFERASE INFECTION ASSAY - IC50) was 5.35 µM and the IC90 was > 9.01 µM.
Compound `Clc1ccc2[nH]cc(CCNc3nc(Cl)nc4nc[nH]c34)c2c1` has an IC50 (HEPG2TOX_HILL_SLOPE 2.4, HEPG2TOX_R_SQUARED 0.982, PBLUC_HILL_SLOPE 2.19, PBLUC_R_SQUARED 0.753, read-out: LUCIFERASE INFECTION ASSAY - IC50) of 0.22 µM and an IC90 of 0.6 µM.
In the case of `Cn1c(Sc2cnc(SCc3ccc(Cl)cc3)nc2-c2ccccc2)nnc1C(F)(F)F`, the IC50 [1] is reported as > 6.68 µM and the IC90 is reported as > 6.68 µM.
For `Cc1ccc(N(Cc2ccccc2)C(=O)C2CCN(S(=O)(=O)c3c(Cl)cccc3Cl)CC2)cc1`, the IC50 [1] was > 10 µM and the IC90 was > 10 µM.
For `CS(=O)(=O)c1cccc(S(=O)(=O)Oc2ccc(C34CC5CC(CC(C5)C3)C4)cc2)c1`, the IC50 (HEPG2TOX_HILL_SLOPE 12.1, HEPG2TOX_R_SQUARED 0.709, PBLUC_HILL_SLOPE 2.69, PBLUC_R_SQUARED 0.465, read-out: LUCIFERASE INFECTION ASSAY - IC50) was 4.49 µM and the IC90 was > 10 µM.
Work on `Cc1cc(-n2c(C)cc(C(=O)Cn3ncc(Cl)c(Cl)c3=O)c2C)ccc1Br` yielded an IC50 (FFLUC_HILL_SLOPE 3.61, FFLUC_R_SQUARED 0.511, HEPG2TOX_HILL_SLOPE 4.93, HEPG2TOX_R_SQUARED 0.864, PBLUC_HILL_SLOPE 65.8, PBLUC_R_SQUARED 0.0361, read-out: LUCIFERASE INFECTION ASSAY - IC50) of 5.65 µM and an IC90 of 5.84 µM.
In the case of `CCOCCCn1c(SCC(=O)N2CCCC3CCCCC32)nc2sc(C)c(C)c2c1=O` (stereo not given), the IC50 (PBLUC_HILL_SLOPE 3.41, PBLUC_R_SQUARED 0.294, read-out: LUCIFERASE INFECTION ASSAY - IC50) is reported as 7.03 µM and the IC90 is reported as > 10 µM.
With `Cc1cc(CN2CCc3ccccc3C2)c(C)cc1O` the IC50 (HEPG2TOX_HILL_SLOPE 17.5, HEPG2TOX_R_SQUARED 0.797, read-out: LUCIFERASE INFECTION ASSAY - IC50) was > 10 µM and the IC90 was > 10 µM.
In the case of `O=c1cc(N2CCN(CCOc3ccccc3Cl)CC2)nc2ccccn12`, the IC50 [1] is reported as > 10 µM and the IC90 is reported as > 10 µM.
In the case of `CC(NC(=O)COC(=O)CSc1ccc(Br)c2cccc(Cl)c12)c1ccccc1` (stereo not given), the IC50 (FFLUC_HILL_SLOPE 11.2, FFLUC_R_SQUARED 0.0748, PBLUC_HILL_SLOPE 1.42, PBLUC_R_SQUARED 0.0165, read-out: LUCIFERASE INFECTION ASSAY - IC50) is reported as > 10 µM and the IC90 is reported as > 10 µM.
In the case of `Cc1[nH]c2ccccc2c1C(=O)COc1ccc(N(C)S(=O)(=O)c2ccccc2F)cc1`, the IC50 (PBLUC_HILL_SLOPE 1.92, PBLUC_R_SQUARED 0.479, read-out: LUCIFERASE INFECTION ASSAY - IC50) is reported as 5.26 µM and the IC90 is reported as > 10 µM.
In the case of `Cc1cc2c(cc1C)C(NC(C)c1ccccc1)=NC(C)(C)C2` (stereo not given), the IC50 (PBLUC_HILL_SLOPE 13.3, PBLUC_R_SQUARED 0.718, read-out: LUCIFERASE INFECTION ASSAY - IC50) is reported as 3.64 µM and the IC90 is reported as 4.29 µM.
For `CC(=O)NCCc1nccn1Cc1ccccc1`, the IC50 [1] was > 10 µM and the IC90 was > 10 µM.
`COc1ccc(Cl)cc1NC(=O)CN(C)c1nc(-c2cccnc2)nc2sc3c(c12)CCCC3` was tested, and the IC50 [1] was > 10 µM and the IC90 was > 10 µM.
With `CC(C)(C)c1ccc(NC(=S)NCCCCCCNC(=S)Nc2ccc(C(C)(C)C)cc2)cc1` the IC50 [1] was > 6.62 µM and the IC90 was > 6.62 µM.
`O=S(=O)(c1ccc(-c2cc(-c3ccccc3Cl)c3cc(Cl)ccc3n2)cc1)N1CCCCC1` was tested, and the IC50 (FFLUC_HILL_SLOPE 79.3, FFLUC_R_SQUARED 0.555, read-out: LUCIFERASE INFECTION ASSAY - IC50) was > 10 µM and the IC90 was > 10 µM.
With `Cc1nn(-c2ccccc2)c2nc(-c3ccccc3)c(-c3nc4ccccc4[nH]3)c(-c3ccncc3)c12` the IC50 (FFLUC_HILL_SLOPE 17.6, FFLUC_R_SQUARED 0.574, PBLUC_HILL_SLOPE 2.67, PBLUC_R_SQUARED 0.448, read-out: LUCIFERASE INFECTION ASSAY - IC50) was 7.61 µM and the IC90 was > 10 µM.
`COC(=O)c1c(NC(=O)C(=O)NCCN(C)C)sc2c1CCCC2` was tested, and the IC50 [1] was > 9.34 µM and the IC90 was > 9.34 µM.
For `COc1ccc(C2c3c(C)nn(-c4ccccc4)c3N=C(c3ccccc3F)N2C2CC2)cc1` (stereo not given), the IC50 (HEPG2TOX_HILL_SLOPE 5.27, HEPG2TOX_R_SQUARED 0.234, read-out: LUCIFERASE INFECTION ASSAY - IC50) was > 10 µM and the IC90 was > 10 µM.
For `Cc1ccc(C)c(-c2nn(CC(=O)c3cc(C)n(C)c3C)c(=O)c3ccccc23)c1`, the IC50 [1] was > 10 µM and the IC90 was > 10 µM.
`Cc1ccc(/C(C#N)=C/c2ccc(N(C)C)cc2)cc1` showed an IC50 (HEPG2TOX_HILL_SLOPE 1.36, HEPG2TOX_R_SQUARED 0.894, PBLUC_HILL_SLOPE 0.698, PBLUC_R_SQUARED 0.911, read-out: LUCIFERASE INFECTION ASSAY - IC50) of 0.218 µM and an IC90 of 5.07 µM.
